Data reported in patent US9452217B2, “Methods for potentiating immune response for the treatment of infectious diseases and cancer” (Nitor Therapeutics, priority 2013, dated 2016).

Columns and labels:
[1] = tested on: endogenous interferon-a (IFN-a); settings: healthy volunteers, oral; cited from earlier work
[2] = tested on: HCV; settings: chronically HCV infected patients; cited from earlier work
[3] = tested on: B16 tumors; experiment: Syngeneic mouse melanoma model; format: in vivo, C57BL/6 mice; settings: cyclophosphamide 100 mg/kg IP single dose; FIG. 6
Method: Method: Cancer cells were injected subcutaneously in right flank of each mouse, 1×10^4 cells in 0.1 ml PBS with 20% Matrigel. Treatment with the NTR001 was initiated on day 6 after injection of tumor cells. Tumor volume and survival were recorded every 3-4 days.

[4] = target: T1, human TLR4 (Homo sapiens, UniProt O00206+Q9Y6Y9); experiment: TLR ligand screening: NF-κB activation (SEAP reporter) in HEK293 cells expressing TLR4; format: cell-based; settings: one concentration: Guanosine 100 uM, NTR001 10 uM, Inosine 100 uM; FIG. 2
T1 construct: expressed in transfected cells; host or cells: HEK293
Method: (§1) Method: TLR stimulation is tested by assessing NF-κB activation in HEK293 cells expressing a given TLR. The Secreted Embryonic Alkaline Phosphatase (SEAP) reporter is under the control of a promoter inducible by the transcription factor NF-κB. This reporter gene allows the monitoring of signaling through the TLR, based on the activation of NF-κB. The compounds are evaluated at one concentration and compared to control ligands. This step is performed in triplicate.

[5] = target: T2, human TLR2 (Homo sapiens, UniProt O60603); experiment: TLR ligand screening: NF-κB activation (SEAP reporter) in HEK293 cells expressing TLR2; format: cell-based; settings: one concentration: Guanosine 100 uM, NTR001 10 uM, Inosine 100 uM; FIG. 2
T2 construct: expressed in transfected cells; host or cells: HEK293
Method: as §1

[6] = tested on: immune response to tetanus toxoid vaccine; experiment: PNPi as adjuvant in tetanus toxoid vaccine efficacy study (mouse); format: in vivo; settings: mice, p.o., ELISA
[7] = tested on: L. monocytogenes (ATCC Strain35152, hemolytic substrain); experiment: Mouse model of L. monocytogenes infection; settings: Balb/c mice infected i.v. with 1×10^6 CFU; 30 mg/kg PO or IP, 2 mg/kg drinking water; FIGS. 7 and 9

T1 sequence (O00206 24-839): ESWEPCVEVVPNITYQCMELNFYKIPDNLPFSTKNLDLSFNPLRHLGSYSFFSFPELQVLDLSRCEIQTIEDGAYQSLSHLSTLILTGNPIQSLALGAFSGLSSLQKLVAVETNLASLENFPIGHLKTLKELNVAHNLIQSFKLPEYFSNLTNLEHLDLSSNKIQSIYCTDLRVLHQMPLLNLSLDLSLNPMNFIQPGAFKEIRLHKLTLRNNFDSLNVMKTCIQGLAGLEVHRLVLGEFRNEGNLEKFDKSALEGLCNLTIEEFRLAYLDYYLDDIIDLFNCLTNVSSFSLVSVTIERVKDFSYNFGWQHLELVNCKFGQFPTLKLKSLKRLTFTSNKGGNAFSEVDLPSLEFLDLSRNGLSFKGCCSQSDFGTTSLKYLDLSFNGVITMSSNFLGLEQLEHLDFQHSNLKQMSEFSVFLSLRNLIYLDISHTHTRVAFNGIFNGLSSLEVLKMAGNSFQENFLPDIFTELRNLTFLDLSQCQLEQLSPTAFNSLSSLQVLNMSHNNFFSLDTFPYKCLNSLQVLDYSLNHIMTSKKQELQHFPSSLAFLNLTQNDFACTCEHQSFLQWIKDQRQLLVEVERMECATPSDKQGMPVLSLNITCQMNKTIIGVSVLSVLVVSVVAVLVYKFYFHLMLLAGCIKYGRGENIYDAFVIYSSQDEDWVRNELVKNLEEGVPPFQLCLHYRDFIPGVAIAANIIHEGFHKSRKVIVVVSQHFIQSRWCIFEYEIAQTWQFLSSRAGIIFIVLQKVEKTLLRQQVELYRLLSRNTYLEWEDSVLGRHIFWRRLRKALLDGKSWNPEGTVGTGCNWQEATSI
T1 sequence (Q9Y6Y9 17-160 limits assumed): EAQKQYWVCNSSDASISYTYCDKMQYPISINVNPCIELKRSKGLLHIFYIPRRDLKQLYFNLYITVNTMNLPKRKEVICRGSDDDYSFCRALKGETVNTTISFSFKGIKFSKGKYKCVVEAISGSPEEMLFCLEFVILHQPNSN
T2 sequence (O60603 21-784): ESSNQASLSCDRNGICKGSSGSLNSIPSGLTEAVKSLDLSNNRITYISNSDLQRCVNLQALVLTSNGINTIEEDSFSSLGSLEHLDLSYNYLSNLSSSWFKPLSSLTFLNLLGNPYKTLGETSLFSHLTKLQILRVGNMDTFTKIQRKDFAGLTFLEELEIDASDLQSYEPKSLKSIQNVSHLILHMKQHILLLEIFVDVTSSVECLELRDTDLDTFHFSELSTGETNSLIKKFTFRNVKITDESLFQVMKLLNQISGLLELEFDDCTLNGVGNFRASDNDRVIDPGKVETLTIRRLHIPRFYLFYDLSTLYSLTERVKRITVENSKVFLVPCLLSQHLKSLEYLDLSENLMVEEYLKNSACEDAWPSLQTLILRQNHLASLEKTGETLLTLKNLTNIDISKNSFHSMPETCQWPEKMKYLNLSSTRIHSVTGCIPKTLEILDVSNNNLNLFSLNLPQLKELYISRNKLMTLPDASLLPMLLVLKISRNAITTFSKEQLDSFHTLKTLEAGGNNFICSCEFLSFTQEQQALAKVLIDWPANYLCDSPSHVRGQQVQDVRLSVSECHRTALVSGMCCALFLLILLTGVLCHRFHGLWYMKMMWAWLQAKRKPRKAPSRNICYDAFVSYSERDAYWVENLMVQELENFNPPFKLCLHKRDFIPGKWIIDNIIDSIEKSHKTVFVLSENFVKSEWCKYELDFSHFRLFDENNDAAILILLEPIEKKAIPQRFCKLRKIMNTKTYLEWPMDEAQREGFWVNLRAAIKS

SMILES: CC(=O)O[C@@H]1C[C@@H](CO)O[C@H]1n1c(=O)sc2cnc(N)nc21 [ANA773]
- induction of endogenous interferon-a [1]: induction of endogenous interferon-a (IFN-a) of multiple subtypes
- HCV RNA [2]: dose dependent reduction

SMILES: O=P1(N(CCCl)CCCl)NCCCO1 (centres unmarked) [Cyclcophosphamide, cyclophosphamide]
- survival [3]: 30%

SMILES: Nc1nc2c(ncn2[C@@H]2O[C@H](CO)[C@@H](O)[C@H]2O)c(=O)[nH]1 [Guanosine]
- stimulatory effect on human TLR4 [4]: significant stimulatory effect
- stimulatory effect on human TLR2 [5]: significant stimulatory effect

SMILES: O=c1[nH]cnc2c(CN3C[C@H](CO)[C@@H](O)C3)c[nH]c12 [NTR002, 1,5-dihydro-7-[[(3R,4R)-3-hydroxy-4-(hydroxymethyl)pyrrolidin-1-yl]methyl]-4H-pyrrolo [3,2-d]pyrimidin-4-one]
- serum tetanus toxoid antibody titers compared to the vehicle treated group ([6]; 30 mg/kg (6 days of treatment) and 60 mg/kg (3 days of treatment), day 38, FIG. 3): significantly elevated
- serum interferon-g compared to the vehicle treated group ([6]; high dose group 60 mg/kg, day 30, FIG. 4): elevated
- weight loss [7]: significant decrease in weight loss
